Experimental data reported in patent publication US10800792B2, “Inhibitors of Bruton's tyrosine kinase and method of their use” (JANSSEN PHARMACEUTICA NV, priority 2015, dated 2020).

target: unphosphorylated-BTK kinase domain (UP-BTK), GST-tagged human BTK (389-659aa) (Homo sapiens (Human), UniProt Q06187); assay: BTK kinase Lanthascreen binding assay; settings: Lanthascreen tracer competition, 60 minutes incubation; pIC50 = negative log of the IC50 in molar
How it was run: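 Lanthascreen competition binding; test compound vs fluorescent tracer on unphosphorylated BTK. Output: pIC50 (−log IC50, M).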

Chain of unphosphorylated-BTK kinase domain (UP-BTK), GST-tagged human BTK (389-659aa) (Q06187 389-659): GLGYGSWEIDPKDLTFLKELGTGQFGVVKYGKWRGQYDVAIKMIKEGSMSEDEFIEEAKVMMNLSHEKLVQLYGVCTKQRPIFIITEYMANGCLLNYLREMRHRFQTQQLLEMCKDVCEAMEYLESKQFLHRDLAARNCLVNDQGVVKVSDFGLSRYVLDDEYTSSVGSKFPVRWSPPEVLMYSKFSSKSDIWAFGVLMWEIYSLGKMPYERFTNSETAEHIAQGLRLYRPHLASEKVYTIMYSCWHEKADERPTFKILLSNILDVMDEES

| SMILES | BTK_I_binding pIC50 |
| --- | --- |
| Cc1cc(Oc2ccccc2)ccc1N1C(=O)Nc2c(C(=O)N[C@@H]3CCN(C#N)C3)sc3nccc1c23 [Example 837, (R)—N-(1-Cyanopyrrolidin-3-yl)-5-(2-methyl-4-phenoxyphenyl)-4-oxo-4,5-dihydro-3H-1-thia-3,5,8-triazaacenaphthylene-2-carboxamide] | 7.9 |
| CCC(=O)N1CCC[C@@H](NC(=O)c2sc3nccc4c3c2NC(=O)N4c2ccc(Oc3ccccn3)cc2C)C1 [Example 799, (R)-5-(2-Methyl-4-(pyridin-2-yloxy)phenyl)-4-oxo-N-(1-propionylpiperidin-3-yl)-4,5-dihydro-3H-1-thia-3,5,8-triazaacenaphthylene-2-carboxamide] | 6.2 |
| C=CC(=O)N1CCC[C@@H](NC(=O)c2sc3nccc4c3c2NC(=O)N4c2ccc(Oc3cccnn3)cc2)C1 [Example 791, (R)—N-(1-Acryloylpiperidin-3-yl)-4-oxo-5-(4-(pyridazin-3-yloxy)phenyl)-4,5-dihydro-3H-1-thia-3,5,8-triazaacenaphthylene-2-carboxamide] | 6.6 |
| C=CC(=O)N1CCC[C@@H](NC(=O)c2sc3nccc4c3c2NC(=O)N4c2ccnc(-c3ccccc3)c2C)C1 (single isomer, unassigned) [Example 676, (R)—N-(1-Acryloylpiperidin-3-yl)-5-(*R)-(3-methyl-2-phenylpyridin-4-yl)-4-oxo-4,5-dihydro-3H-1-thia-3,5,8-triazaacenaphthylene-2-carboxamide] | 7.6 |
| C=CC(=O)N1C[C@@H](O)[C@@H](NC(=O)c2sc3nccc4c3c2NC(=O)N4c2ccnc(-c3ccccc3)c2)C1 [Example 718, N-((3S,4R)-1-Acryloyl-4-hydroxypyrrolidin-3-yl)-4-oxo-5-(2-phenylpyridin-4-yl)-4,5-dihydro-3H-1-thia-3,5,8-triazaacenaphthylene-2-carboxamide] | 6.3 |
| C=CC(=O)N1CCC[C@@H](NC(=O)c2sc3nccc4c3c2NC(=O)N4c2ccnc(C3CCCC3)c2)C1 [Example 692, (R)—N-(1-Acryloylpiperidin-3-yl)-5-(2-cyclopentylpyridin-4-yl)-4-oxo-4,5-dihydro-3H-1-thia-3,5,8-triazaacenaphthylene-2-carboxamide] | 8.0 |
| O=C(N[C@@H]1CCNC1)c1sc2nccc3c2c1NC(=O)N3c1ccc(Oc2ccccc2)nc1 [Example 741, (R)-4-Oxo-5-(6-phenoxypyridin-3-yl)-N-(pyrrolidin-3-yl)-4,5-dihydro-3H-1-thia-3,5,8-triazaacenaphthylene-2-carboxamide] | 5.9 |
| C=CC(=O)N1CCC[C@@H](NC(=O)c2sc3nccc4c3c2NC(=O)N4c2ccnc(C3CCC3)c2)C1 [Example 591, (R)—N-(1-Acryloylpiperidin-3-yl)-5-(2-cyclobutylpyridin-4-yl)-4-oxo-4,5-dihydro-3H-1-thia-3,5,8-triazaacenaphthylene-2-carboxamide] | 7.5 |

same assay, conditions: Lanthascreen tracer competition, 60 minutes incubation; pIC50 = negative log of the IC50 in molar; read-out: BTK_I_binding pIC50 (converted)

| SMILES | IC50 [nM] |
| --- | --- |
| C=CC(=O)N1CCC[C@@H](NC(=O)c2sc3nccc4c3c2NC(=O)N4c2ccc(OC3CCOCC3)cc2C)C1 (single isomer, unassigned) [Example 813, (R)—N-(1-Acryloylpiperidin-3-yl)-5-(*S)-(2-methyl-4-((tetrahydro-2H-pyran-4-yl)oxy)phenyl)-4-oxo-4,5-dihydro-3H-1-thia-3,5,8-triazaacenaphthylene-2-carboxamide] | > 1000 |
| O=C(N[C@@H]1CCCNC1)c1sc2nccc3c2c1NC(=O)N3c1ncc(Oc2ccccc2)cn1 [Example 719, (R)-4-Oxo-5-(5-phenoxypyrimidin-2-yl)-N-(piperidin-3-yl)-4,5-dihydro-3H-1-thia-3,5,8-triazaacenaphthylene-2-carboxamide] | 501 |

same assay, conditions: pIC50 = negative log of the IC50 in molar; 60 minutes incubation, 50 nM Tracer 236

| SMILES | BTK_I_binding pIC50 |
| --- | --- |
| C=CC(=O)N1CC(F)C[C@@H](NC(=O)c2sc3nccc4c3c2NC(=O)N4c2ccc(Oc3ccccc3)cc2C)C1 (stereo in doubt) [Example 3, N-((3R,5S)-1-Acryloyl-5-fluoropiperidin-3-yl)-5-(2-methyl-4-phenoxyphenyl)-4-oxo-4,5-dihydro-3H-1-thia-3,5,8-triazaacenaphthylene-2-carboxamide] | 7.9 |
| Cc1cc(Oc2ccccc2)ccc1N1C(=O)Nc2c(C(=O)N[C@@H]3CCCN(C(=O)/C=C/C(C)(C)C)C3)sc3nccc1c23 [Example 274, (R,E)-N-(1-(4,4-Dimethylpent-2-enoyl)piperidin-3-yl)-5-(2-methyl-4-phenoxyphenyl)-4-oxo-4,5-dihydro-3H-1-thia-3,5,8-triazaacenaphthylene-2-carboxamide] | 6.3 |
| Cc1cc(Oc2ccccc2)ccc1N1C(=O)Nc2c(C(=O)N[C@H]3CNC[C@H]3O)sc3nccc1c23 [Example 241, N-((3S,4R)-4-hydroxypyrrolidin-3-yl)-5-(2-methyl-4-phenoxyphenyl)-4-oxo-4,5-dihydro-3H-1-thia-3,5,8-triazaacenaphthylene-2-carboxamide] | 6.7 |
| N#C/C(=C\C1CC1)C(=O)N1CCC[C@@H](NC(=O)c2sc3nccc4c3c2NC(=O)N4c2ccc(Oc3ccccc3)cc2)C1 [Example 47, (R,E)-N-(1-(2-Cyano-3-cyclopropylacryloyl)piperidin-3-yl)-4-oxo-5-(4-phenoxyphenyl)-4,5-dihydro-3H-1-thia-3,5,8-triazaacenaphthylene-2-carboxamide] | 8.0 |
| Cc1cc(Oc2ccccc2)ccc1N1C(=O)Nc2c(C(=O)N[C@@H]3CCCNC3)sc3nccc1c23 (single isomer, unassigned) [Example 98, (R)-5-(*S)-(2-Methyl-4-phenoxyphenyl)-4-oxo-N-(piperidin-3-yl)-4,5-dihydro-3H-1-thia-3,5,8-triazaacenaphthylene-2-carboxamide] | 7.3 |
| CO[C@H]1CN(C)C[C@@H]1NC(=O)c1sc2nccc3c2c1NC(=O)N3c1ccc(Oc2ccccc2)cc1C [Example 244, N-((3S,4S)-4-Methoxy-1-methylpyrrolidin-3-yl)-5-(2-methyl-4-phenoxyphenyl)-4-oxo-4,5-dihydro-3H-1-thia-3,5,8-triazaacenaphthylene-2-carboxamide] | 6.6 |

same assay, conditions: unphosphorylated-BTK kinase domain, 50 nM Tracer 236, 60 minutes; pIC50 = negative log of the IC50 in molar

| SMILES | BTK_I_binding pIC50 |
| --- | --- |
| C=CC(=O)N1CCC[C@@H](NC(=O)c2sc3nccc4c3c2NC(=O)N4c2cccc(C(C)C)c2)C1 [Example 529, (R)—N-(1-Acryloylpiperidin-3-yl)-5-(3-isopropylphenyl)-4-oxo-4,5-dihydro-3H-1-thia-3,5,8-triazaacenaphthylene-2-carboxamide] | 7.6 |
| Cc1ccc(N2C(=O)Nc3c(C(=O)N[C@@H]4CCCNC4)sc4nccc2c34)cc1Cl [Example 460, (R)-5-(3-Chloro-4-methylphenyl)-4-oxo-N-(piperidin-3-yl)-4,5-dihydro-3H-1-thia-3,5,8-triazaacenaphthylene-2-carboxamide] | 5.3 |
| Cc1ccc(Oc2ccc(N3C(=O)Nc4c(C(=O)N[C@@H]5CCCN(C)C5)sc5nccc3c45)c(C)c2)cc1 [Example 290, (R)-5-(2-Methyl-4-(p-tolyloxy)phenyl)-N-(1-methylpiperidin-3-yl)-4-oxo-4,5-dihydro-3H-1-thia-3,5,8-triazaacenaphthylene-2-carboxamide] | 6.2 |
| C=CC(=O)N1CCC[C@@H](NC(=O)c2sc3nccc4c3c2NC(=O)N4c2cccc(OC3CCCCC3)c2)C1 [Example 560, (R)—N-(1-Acryloylpiperidin-3-yl)-5-(3-(cyclohexyloxy)phenyl)-4-oxo-4,5-dihydro-3H-1-thia-3,5,8-triazaacenaphthylene-2-carboxamide] | 7.6 |
| C=CC(=O)N1CCC[C@@H](NC(=O)c2sc3nccc4c3c2NC(=O)N4c2ccn(Cc3ccccc3)n2)C1 [Example 420, (R)—N-(1-Acryloylpiperidin-3-yl)-5-(1-benzyl-1H-pyrazol-3-yl)-4-oxo-4,5-dihydro-3H-1-thia-3,5,8-triazaacenaphthylene-2-carboxamide] | 6.0 |
| C=CC(=O)N1CCC[C@@H](NC(=O)c2sc3nccc4c3c2NC(=O)N4c2ccc(Oc3ccccc3)cn2)C1 [Example 513, (R)—N-(1-Acryloylpiperidin-3-yl)-4-oxo-5-(5-phenoxypyridin-2-yl)-4,5-dihydro-3H-1-thia-3,5,8-triazaacenaphthylene-2-carboxamide] | 8.2 |
| C=CC(=O)N1CCC[C@@H](NC(=O)c2sc3nccc4c3c2NC(=O)N4c2cccc(-c3cccc(C)c3)c2)C1 [Example 517, (R)—N-(1-Acryloylpiperidin-3-yl)-5-(3′-methyl-[1,1′-biphenyl]-3-yl)-4-oxo-4,5-dihydro-3H-1-thia-3,5,8-triazaacenaphthylene-2-carboxamide] | 7.5 |
| Cc1cc(Oc2ccccc2)ccc1N1C(=O)Nc2c(C(=O)N[C@@H]3CCCN(C(=O)/C(F)=C/CN)C3)sc3nccc1c23 [Example 549, (R,Z)—N-(1-(4-Amino-2-fluorobut-2-enoyl)piperidin-3-yl)-5-(2-methyl-4-phenoxyphenyl)-4-oxo-4,5-dihydro-3H-1-thia-3,5,8-triazaacenaphthylene-2-carboxamide] | 7.2 |

same assay, conditions: unphosphorylated-BTK kinase domain, 60 minutes incubation, 50 nM Tracer 236; pIC50 = negative log of the IC50 in molar

| SMILES | BTK_I_binding pIC50 |
| --- | --- |
| Cc1cc(OC2CCCC2)ccc1N1C(=O)Nc2c(C(=O)N[C@@H]3CCCNC3)sc3nccc1c23 [Example 919, (R)-5-(4-(cyclopentyloxy)-2-methylphenyl)-4-oxo-N-(piperidin-3-yl)-4,5-dihydro-3H-1-thia-3,5,8-triazaacenaphthylene-2-carboxamide] | 6.4 |
| CC(=O)N1CCC[C@@H](NC(=O)c2sc3nccc4c3c2NC(=O)N4c2ccc(OC(C)C)cc2C)C1 [Example 936, (R)—N-(1-Acetylpiperidin-3-yl)-5-(4-isopropoxy-2-methylphenyl)-4-oxo-4,5-dihydro-3H-1-thia-3,5,8-triazaacenaphthylene-2-carboxamide] | <6 |
